Measurements from patent US20230241226A1, “COMPOUNDS FOR TARGETED DEGRADATION OF CARRIER PROTEINS AND USES THEREOF” (CeMM - Forschungszentrum für Molekulare Medizin GmbH, priority 2019, published 2023).

Tests used:
Format in all cases: cell-based
Strep/HA SLC9B2 = target: T1, Strep/HA SLC9B2 (Homo sapiens, UniProt Q86UD5); assay: Selectivity across SLC9 family: degradation of exogenous Strep/HA SLC9B2; details: HAP1; 250 or 750 nM; 16 hours
T1 construct: expressed in transfected cells; host or cells: HAP1 (lentiviral, pRRL Strep-HA; cDNA synthesized by Genescript)
T1 sequence (Q86UD5 whole entry): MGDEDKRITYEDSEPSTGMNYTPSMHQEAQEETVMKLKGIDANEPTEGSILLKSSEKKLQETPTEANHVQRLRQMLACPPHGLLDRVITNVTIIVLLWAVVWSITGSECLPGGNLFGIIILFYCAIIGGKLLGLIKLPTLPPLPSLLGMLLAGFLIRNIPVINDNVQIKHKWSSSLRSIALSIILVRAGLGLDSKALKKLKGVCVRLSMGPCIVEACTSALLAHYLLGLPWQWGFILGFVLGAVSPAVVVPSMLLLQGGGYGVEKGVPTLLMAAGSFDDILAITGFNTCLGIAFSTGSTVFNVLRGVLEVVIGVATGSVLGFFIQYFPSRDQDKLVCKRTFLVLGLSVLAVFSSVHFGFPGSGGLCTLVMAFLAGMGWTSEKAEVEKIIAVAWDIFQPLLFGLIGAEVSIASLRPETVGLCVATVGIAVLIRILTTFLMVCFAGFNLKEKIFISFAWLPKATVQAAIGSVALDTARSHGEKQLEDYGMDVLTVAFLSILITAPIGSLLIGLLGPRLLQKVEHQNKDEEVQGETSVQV
Description: (E) Selectivity of d9A1-2 was tested across HAP1 cell lines expressing Strep/HASLC9A1, 9A4, 9A5, 9A8, 9A2, 9B2, 9A6, 9A9, and 9A3. Cells were treated with varying concentrations of d9A1-2 for 16 hours, after which degradation of the exogenous SLCs was monitored.
SLC1A5, SLC2A1, SLC2A3, SLC16A1, SLC38A1, SLC38A2 were obtained as gateway-compatible pENTR/pDONR vectors from the Harvard PlasmID Repository. SLC39A7 was obtained from Dharmacon, GE Healthcare. The following vectors were synthesized by Genescript: SLC4A4, SLC7A3, SLC38A9, SLC25A1, SLC9A1, SLC9A2, SLC9A3, SLC9A4, SLC9A5, SLC9A6, SLC9A7, SLC9A8, and SLC9B2. SLC30A9, SLC33A1, SLC35B2, SLC25A26, and MTCH2 were a gift from the RESOLUTE consortium. cDNAs were transferred into gateway-compatible lentiviral expression vectors: pLX305 dTAG vectors (Addgene #91797/8) or pRRL Strep-HA (described previously43, EF1a promotor driven expression) using LR recombination (ThermoFisher Scientific). […]
(§1) For immunoblotting, whole cell extracts were prepared using RIPA lysis buffer (25 mM Tris/HCl pH 7.6, 150 mM NaCl, 1% NP-40, 1% sodium deoxycholate, 0.1% SDS, EDTA-free protease inhibitor (Roche) and phosphatase inhibitors 2+3 (Sigma- Aldrich)). […] Protein extracts were quantified and normalized using the BCA assay (Thermo Scientific). […]

dTAG-HA SLC16A1 = target: T2, dTAG-HA SLC16A1 (Homo sapiens, UniProt P53985+Q96SW2); assay: Targeted degradation of dTAG-tagged SLC16A1 (western blot); details: HAP1, 0.5 µM, 24, 48 or 72 hours
T2 construct: expressed in transfected cells
T2 sequence (P53985 with tags, fused parts or gaps): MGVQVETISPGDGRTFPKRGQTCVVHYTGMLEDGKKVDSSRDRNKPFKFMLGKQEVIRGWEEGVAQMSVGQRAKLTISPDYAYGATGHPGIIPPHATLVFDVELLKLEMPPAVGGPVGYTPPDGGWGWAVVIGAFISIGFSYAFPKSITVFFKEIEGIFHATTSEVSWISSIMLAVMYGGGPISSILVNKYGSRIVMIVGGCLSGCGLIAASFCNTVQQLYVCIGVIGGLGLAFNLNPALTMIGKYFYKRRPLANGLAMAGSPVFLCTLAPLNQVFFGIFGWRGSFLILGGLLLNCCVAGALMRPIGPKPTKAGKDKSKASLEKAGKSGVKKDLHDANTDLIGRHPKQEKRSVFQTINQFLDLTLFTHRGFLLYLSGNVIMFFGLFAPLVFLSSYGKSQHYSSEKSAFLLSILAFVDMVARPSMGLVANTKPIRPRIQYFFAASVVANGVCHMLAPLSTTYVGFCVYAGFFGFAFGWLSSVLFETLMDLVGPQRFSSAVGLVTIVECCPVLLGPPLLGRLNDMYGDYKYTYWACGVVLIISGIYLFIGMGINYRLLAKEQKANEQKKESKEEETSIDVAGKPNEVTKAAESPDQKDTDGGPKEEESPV
T2 sequence (Q96SW2 whole entry): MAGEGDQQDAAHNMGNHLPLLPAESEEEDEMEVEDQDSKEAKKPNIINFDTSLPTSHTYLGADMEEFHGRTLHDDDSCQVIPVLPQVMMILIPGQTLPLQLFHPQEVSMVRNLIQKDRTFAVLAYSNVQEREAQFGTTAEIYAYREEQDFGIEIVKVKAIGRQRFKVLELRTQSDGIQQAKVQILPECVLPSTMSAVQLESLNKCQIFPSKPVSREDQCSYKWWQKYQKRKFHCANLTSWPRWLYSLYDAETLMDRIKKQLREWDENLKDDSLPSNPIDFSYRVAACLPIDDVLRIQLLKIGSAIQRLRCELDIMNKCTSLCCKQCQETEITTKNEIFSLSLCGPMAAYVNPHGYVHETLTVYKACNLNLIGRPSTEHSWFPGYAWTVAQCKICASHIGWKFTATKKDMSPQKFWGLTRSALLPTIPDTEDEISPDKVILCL
T2 sequence (Q16531 whole entry partner): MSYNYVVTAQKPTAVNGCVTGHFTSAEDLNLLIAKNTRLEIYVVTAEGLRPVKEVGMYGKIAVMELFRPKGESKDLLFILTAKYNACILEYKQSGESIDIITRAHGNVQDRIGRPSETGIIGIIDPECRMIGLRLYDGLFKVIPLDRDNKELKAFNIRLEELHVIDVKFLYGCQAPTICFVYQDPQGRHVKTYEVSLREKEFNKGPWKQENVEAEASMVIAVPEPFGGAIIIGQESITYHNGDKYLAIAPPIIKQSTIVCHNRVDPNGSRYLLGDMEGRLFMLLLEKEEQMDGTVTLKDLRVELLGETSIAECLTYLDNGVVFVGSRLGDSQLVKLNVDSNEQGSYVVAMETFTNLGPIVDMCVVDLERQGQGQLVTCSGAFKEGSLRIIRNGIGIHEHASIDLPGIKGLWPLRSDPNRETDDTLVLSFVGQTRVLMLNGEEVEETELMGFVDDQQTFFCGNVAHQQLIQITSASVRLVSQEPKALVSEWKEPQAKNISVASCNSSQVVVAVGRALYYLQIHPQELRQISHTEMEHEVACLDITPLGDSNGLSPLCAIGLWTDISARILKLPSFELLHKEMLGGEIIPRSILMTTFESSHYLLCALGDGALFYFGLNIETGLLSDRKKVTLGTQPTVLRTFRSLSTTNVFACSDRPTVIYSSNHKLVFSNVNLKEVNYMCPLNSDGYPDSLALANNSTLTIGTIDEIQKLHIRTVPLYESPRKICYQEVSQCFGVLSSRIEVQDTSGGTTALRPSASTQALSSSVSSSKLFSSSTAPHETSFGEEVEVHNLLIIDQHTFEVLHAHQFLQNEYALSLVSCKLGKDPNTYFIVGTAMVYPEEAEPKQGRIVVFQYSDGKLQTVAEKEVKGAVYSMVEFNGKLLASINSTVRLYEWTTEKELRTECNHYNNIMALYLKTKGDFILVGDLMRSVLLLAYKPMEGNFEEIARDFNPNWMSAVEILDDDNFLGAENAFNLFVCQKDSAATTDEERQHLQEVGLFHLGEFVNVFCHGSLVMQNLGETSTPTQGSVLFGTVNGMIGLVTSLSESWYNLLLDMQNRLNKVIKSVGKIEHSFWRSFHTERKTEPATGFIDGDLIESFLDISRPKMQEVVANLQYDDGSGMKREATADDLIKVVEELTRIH
Description: (§2) (C)HAP1 cells expressing dTAG-HA SLC1A5, 2A3, 30A9, 35B2, MTCH2, and 33A1 were treated for 24 hours with 0.5 µM of dTAG7 or dTAG13, as indicated. HAP1 cells expressing dTAG-HA SLC2A1 and 16A1 were treated for 24 hrs with 0.5 µM of dTAG7. HAP1 cell lines expressing dTAG-HA SLC39A7, dTAG-HA SLC4A4, and SLC7A3-dTAG-HA were treated for 48 hrs with 0.5 µM of dTAG13.
(§3) SLC1A5, SLC2A1, SLC2A3, SLC16A1, SLC38A1, SLC38A2 were obtained as gateway-compatible pENTR/pDONR vectors from the Harvard PlasmID Repository. SLC39A7 was obtained from Dharmacon, GE Healthcare. The following vectors were synthesized by Genescript: SLC4A4, SLC7A3, SLC38A9, SLC25A1, SLC9A1, SLC9A2, SLC9A3, SLC9A4, SLC9A5, SLC9A6, SLC9A7, SLC9A8, and SLC9B2. […]
as §1
(§4) SLCs were ectopically expressed as fusions to a mutated FKBP domain, also known as the dTAG system. […]

dTAG-HA SLC33A1 = target: T3, dTAG-HA SLC33A1 (Homo sapiens, UniProt O00400+Q96SW2); assay: Targeted degradation of dTAG-tagged SLC33A1 (western blot); details: HAP1, 0.5 µM
T3 construct: expressed in transfected cells
T3 sequence (O00400 with tags, fused parts or gaps): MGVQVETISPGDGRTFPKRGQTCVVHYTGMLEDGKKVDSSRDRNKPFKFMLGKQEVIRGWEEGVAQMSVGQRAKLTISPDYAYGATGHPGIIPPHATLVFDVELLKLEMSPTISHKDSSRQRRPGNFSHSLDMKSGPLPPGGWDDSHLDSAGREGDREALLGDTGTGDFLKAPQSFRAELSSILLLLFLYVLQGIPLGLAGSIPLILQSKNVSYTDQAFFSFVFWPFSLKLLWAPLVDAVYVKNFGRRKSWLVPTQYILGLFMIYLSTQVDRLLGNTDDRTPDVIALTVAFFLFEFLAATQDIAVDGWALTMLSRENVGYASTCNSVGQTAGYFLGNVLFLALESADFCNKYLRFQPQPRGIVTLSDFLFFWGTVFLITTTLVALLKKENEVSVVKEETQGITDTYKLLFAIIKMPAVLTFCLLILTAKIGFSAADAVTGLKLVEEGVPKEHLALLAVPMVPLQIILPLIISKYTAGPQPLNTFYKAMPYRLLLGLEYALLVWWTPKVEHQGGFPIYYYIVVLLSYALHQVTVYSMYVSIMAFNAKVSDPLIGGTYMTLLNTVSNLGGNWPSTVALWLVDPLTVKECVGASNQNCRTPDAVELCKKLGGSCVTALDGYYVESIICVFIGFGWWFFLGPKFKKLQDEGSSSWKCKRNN
T3 sequence (Q96SW2 whole entry): as the sequence (Q96SW2 whole entry) above
T3 sequence (Q16531 whole entry partner): as the sequence (Q16531 whole entry partner) above
Description: as §2, §3, §1, §4

Row | SMILES | abundance of exogenous SLC9B2 (Strep/HA SLC9B2) | reversibility of degradation of the target SLC (dTAG-HA SLC16A1) | initiation of degradation (time course) (dTAG-HA SLC33A1) [h]
1 | Cc1cc(-c2ccc(C(=O)NCCOCCOCCOCCOCCNc3cccc4c3C(=O)N(C3CCC(=O)NC3=O)C4=O)cc2N2CCC(c3[nH]cnc3C)CC2)ccc1F (stereo not drawn) [d9A1-2] | not significantly affected |  | 
2 | CC[C@H](C(=O)N1CCCC[C@H]1C(=O)O[C@H](CCc1ccc(OC)c(OC)c1)c1ccccc1OCC(=O)NCCCOCCOCCOCCCNC(=O)COc1cccc2c1C(=O)N(C1CCC(=O)NC1=O)C2=O)c1cc(OC)c(OC)c(OC)c1 (stereo partly drawn) [dTAG7] |  | reversible degradation | ≤ 6
